In the NIST ThermoML archive (doi:10.1021/je050050p):
± gives the expanded uncertainty stated by the source.

Experiment: xn = mol fraction of the nth substance listed
Conditions: Liquid, Vibrating tube method

CN(C)C=O [dimethylformamide] + O=C=O
mass density (313.15 K, 15999 kPa, x2 = 0.2876): 958.91 ± 0.41 kg/m3
mass density (313.15 K, 16006 kPa, x2 = 0.4461): 967.34 ± 0.41 kg/m3
mass density (313.15 K, 16007 kPa, x2 = 0.4268): 966.35 ± 0.41 kg/m3
mass density (313.15 K, 17000 kPa, x2 = 0.4268): 967.35 ± 0.41 kg/m3
mass density (313.15 K, 17005 kPa, x2 = 0.2876): 959.75 ± 0.41 kg/m3
mass density (313.15 K, 17007 kPa, x2 = 0.4461): 968.38 ± 0.41 kg/m3
mass density (313.15 K, 17985 kPa, x2 = 0.4461): 969.42 ± 0.41 kg/m3
mass density (313.15 K, 17994 kPa, x2 = 0.4268): 968.36 ± 0.41 kg/m3
mass density (313.15 K, 18009 kPa, x2 = 0.2876): 960.57 ± 0.41 kg/m3
mass density (313.15 K, 19015 kPa, x2 = 0.4461): 970.46 ± 0.41 kg/m3
mass density (313.15 K, 19017 kPa, x2 = 0.4268): 969.38 ± 0.41 kg/m3
mass density (313.15 K, 19021 kPa, x2 = 0.2876): 961.39 ± 0.41 kg/m3
mass density (313.15 K, 19994 kPa, x2 = 0.4268): 970.35 ± 0.41 kg/m3
mass density (313.15 K, 20001 kPa, x2 = 0.2876): 962.21 ± 0.41 kg/m3
mass density (313.15 K, 20007 kPa, x2 = 0.4461): 971.48 ± 0.41 kg/m3
mass density (313.15 K, 20983 kPa, x2 = 0.4268): 971.33 ± 0.41 kg/m3
mass density (313.15 K, 20996 kPa, x2 = 0.4461): 972.47 ± 0.41 kg/m3
mass density (313.15 K, 21004 kPa, x2 = 0.2876): 963 ± 0.41 kg/m3
mass density (313.15 K, 22022 kPa, x2 = 0.2876): 963.82 ± 0.41 kg/m3
mass density (313.15 K, 22022 kPa, x2 = 0.4461): 973.5 ± 0.41 kg/m3
mass density (313.15 K, 22024 kPa, x2 = 0.4268): 972.32 ± 0.41 kg/m3
mass density (313.15 K, 22993 kPa, x2 = 0.4461): 974.47 ± 0.41 kg/m3
mass density (313.15 K, 23016 kPa, x2 = 0.2876): 964.58 ± 0.41 kg/m3
mass density (313.15 K, 23020 kPa, x2 = 0.4268): 973.26 ± 0.41 kg/m3
mass density (313.15 K, 23989 kPa, x2 = 0.2876): 965.35 ± 0.41 kg/m3
mass density (313.15 K, 23996 kPa, x2 = 0.4461): 975.45 ± 0.41 kg/m3
mass density (313.15 K, 24016 kPa, x2 = 0.4268): 974.2 ± 0.41 kg/m3
mass density (313.15 K, 24992 kPa, x2 = 0.4461): 976.41 ± 0.41 kg/m3
mass density (313.15 K, 24996 kPa, x2 = 0.4268): 975.14 ± 0.41 kg/m3
mass density (313.15 K, 25004 kPa, x2 = 0.2876): 966.15 ± 0.41 kg/m3
mass density (313.16 K, 5026 kPa, x2 = 0.4502): 955.28 ± 0.41 kg/m3
mass density (313.16 K, 5988 kPa, x2 = 0.4502): 956.32 ± 0.41 kg/m3
mass density (313.16 K, 6028 kPa, x2 = 0.4068): 955.07 ± 0.41 kg/m3
mass density (313.16 K, 7004 kPa, x2 = 0.4502): 957.42 ± 0.41 kg/m3
mass density (313.16 K, 7010 kPa, x2 = 0.4068): 956.12 ± 0.41 kg/m3
mass density (313.16 K, 7999 kPa, x2 = 0.4502): 958.57 ± 0.41 kg/m3
mass density (313.16 K, 8028 kPa, x2 = 0.4068): 957.19 ± 0.41 kg/m3
mass density (313.16 K, 9005 kPa, x2 = 0.4068): 958.24 ± 0.41 kg/m3
mass density (313.16 K, 9031 kPa, x2 = 0.4502): 959.69 ± 0.41 kg/m3
mass density (313.16 K, 10012 kPa, x2 = 0.4502): 960.79 ± 0.41 kg/m3
mass density (313.16 K, 10041 kPa, x2 = 0.4068): 959.33 ± 0.41 kg/m3
mass density (313.16 K, 10994 kPa, x2 = 0.4068): 960.3 ± 0.41 kg/m3
mass density (313.16 K, 11036 kPa, x2 = 0.4502): 961.92 ± 0.41 kg/m3
mass density (313.16 K, 11990 kPa, x2 = 0.4068): 961.32 ± 0.41 kg/m3
mass density (313.16 K, 12022 kPa, x2 = 0.4502): 963.01 ± 0.41 kg/m3
mass density (313.16 K, 12989 kPa, x2 = 0.4068): 962.33 ± 0.41 kg/m3
mass density (313.16 K, 13014 kPa, x2 = 0.4502): 964.13 ± 0.41 kg/m3
mass density (313.16 K, 14015 kPa, x2 = 0.4502): 965.19 ± 0.41 kg/m3
mass density (313.16 K, 14027 kPa, x2 = 0.4068): 963.34 ± 0.41 kg/m3
mass density (313.16 K, 14992 kPa, x2 = 0.4068): 964.31 ± 0.41 kg/m3
mass density (313.16 K, 15005 kPa, x2 = 0.4502): 966.24 ± 0.41 kg/m3
mass density (313.16 K, 15994 kPa, x2 = 0.4068): 965.3 ± 0.41 kg/m3
mass density (313.16 K, 16019 kPa, x2 = 0.4502): 967.32 ± 0.41 kg/m3
mass density (313.16 K, 16994 kPa, x2 = 0.4068): 966.27 ± 0.41 kg/m3
mass density (313.16 K, 17003 kPa, x2 = 0.4502): 968.34 ± 0.41 kg/m3
mass density (313.16 K, 17999 kPa, x2 = 0.4502): 969.4 ± 0.41 kg/m3
mass density (313.16 K, 18006 kPa, x2 = 0.4068): 967.25 ± 0.41 kg/m3
mass density (313.16 K, 18978 kPa, x2 = 0.4068): 968.19 ± 0.41 kg/m3
mass density (313.16 K, 19033 kPa, x2 = 0.4502): 970.43 ± 0.41 kg/m3
mass density (313.16 K, 19978 kPa, x2 = 0.4502): 971.41 ± 0.41 kg/m3
mass density (313.16 K, 20043 kPa, x2 = 0.4068): 969.19 ± 0.41 kg/m3
mass density (313.16 K, 21007 kPa, x2 = 0.4502): 972.47 ± 0.41 kg/m3
mass density (313.16 K, 21020 kPa, x2 = 0.4068): 970.1 ± 0.41 kg/m3
mass density (313.16 K, 22002 kPa, x2 = 0.4068): 970.98 ± 0.41 kg/m3
mass density (313.16 K, 22023 kPa, x2 = 0.4502): 973.48 ± 0.41 kg/m3
mass density (313.16 K, 23040 kPa, x2 = 0.4502): 974.49 ± 0.41 kg/m3
mass density (313.16 K, 23059 kPa, x2 = 0.4068): 971.98 ± 0.41 kg/m3
mass density (313.16 K, 24007 kPa, x2 = 0.4502): 975.45 ± 0.41 kg/m3
mass density (313.16 K, 24032 kPa, x2 = 0.4068): 972.87 ± 0.41 kg/m3
mass density (313.16 K, 24995 kPa, x2 = 0.4502): 976.42 ± 0.41 kg/m3
mass density (313.16 K, 25024 kPa, x2 = 0.4068): 973.76 ± 0.41 kg/m3
mass density (323.07 K, 9001 kPa, x2 = 0.6235): 928.72 ± 0.41 kg/m3
mass density (323.07 K, 10031 kPa, x2 = 0.6235): 931.44 ± 0.41 kg/m3
mass density (323.07 K, 11013 kPa, x2 = 0.6235): 933.93 ± 0.42 kg/m3
mass density (323.07 K, 12042 kPa, x2 = 0.6235): 936.47 ± 0.42 kg/m3
mass density (323.07 K, 13033 kPa, x2 = 0.6235): 938.86 ± 0.41 kg/m3
mass density (323.07 K, 13992 kPa, x2 = 0.6235): 941.1 ± 0.41 kg/m3
mass density (323.07 K, 14972 kPa, x2 = 0.6235): 943.31 ± 0.41 kg/m3
mass density (323.07 K, 15993 kPa, x2 = 0.6235): 945.57 ± 0.41 kg/m3
mass density (323.07 K, 16998 kPa, x2 = 0.6235): 947.71 ± 0.41 kg/m3
mass density (323.07 K, 18015 kPa, x2 = 0.6235): 949.84 ± 0.41 kg/m3
mass density (323.07 K, 18988 kPa, x2 = 0.6235): 951.84 ± 0.41 kg/m3
mass density (323.07 K, 20012 kPa, x2 = 0.6235): 953.89 ± 0.41 kg/m3
